Holding throughout (assay): relative viability (nuclei count vs DMSO), 5 days (fraction); higher = more cells survive
Compound in the assay “Vemurafenib + Foretinib”: CCCS(=O)(=O)Nc1ccc(F)c(C(=O)c2c[nH]c3ncc(-c4ccc(Cl)cc4)cc23)c1F [Vemurafenib] + COc1cc2c(Oc3ccc(NC(=O)C4(C(=O)Nc5ccc(F)cc5)CC4)cc3F)ccnc2cc1OCCCN1CCOCC1 [Foretinib] (partner 0.25 µM)
The method in brief: (§1)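 Values are medians from duplicate plates. Each reflects relative viability, defined as the nuclei count of treated wells over that of vehicle wells. Lung cancer cell lines in 1536-well plates were pin-tool dosed one day after seeding with one drug alone or with a fixed anchor-drug dose plus five library-drug doses (not always all listed) in √10 steps, then fixed, stained and imaged at 4× after 5 days.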

Compound in the assay “OSI-027 + Trametinib”: COc1cccc2cc(-c3nc([C@H]4CC[C@H](C(=O)O)CC4)n4ncnc(N)c34)[nH]c12 [OSI-027] + CC(=O)Nc1cccc(-n2c(=O)n(C3CC3)c(=O)c3c(Nc4ccc(I)cc4F)n(C)c(=O)c(C)c32)c1 [Trametinib] (partner 0.02 µM)
The method in brief: as §1

Compound in the assay “OSI-027 + Luminespib”: COc1cccc2cc(-c3nc([C@H]4CC[C@H](C(=O)O)CC4)n4ncnc(N)c34)[nH]c12 [OSI-027] + CCNC(=O)c1noc(-c2cc(C(C)C)c(O)cc2O)c1-c1ccc(CN2CCOCC2)cc1 [Luminespib] (partner 0.01 µM)
Put shortly:
as §1

Compound in the assay “OSI-027 + AZD7762”: COc1cccc2cc(-c3nc([C@H]4CC[C@H](C(=O)O)CC4)n4ncnc(N)c34)[nH]c12 [OSI-027] + NC(=O)Nc1cc(-c2cccc(F)c2)sc1C(=O)N[C@H]1CCCNC1 [AZD7762] (partner 0.2 µM)
Put shortly: as §1

Turning to NCI-H2087, the relative viability stood at 1.02 with Vemurafenib + Foretinib (first compound 0.03162 µM); 0.979 in the assay with Vemurafenib + Foretinib (first compound 0.1 µM); 1.12 in the assay with Vemurafenib + Foretinib (first compound 1 µM); 0.194 in the assay with OSI-027 + Trametinib (first compound 0.01 µM); 0.235 with OSI-027 + Trametinib (first compound 0.03162 µM); 0.194 in the assay with OSI-027 + Trametinib (first compound 0.1 µM). In addition, the relative viability in the assay with OSI-027 + Trametinib (first compound 0.3162 µM) was found to be 0.154; in the assay with OSI-027 + Trametinib (first compound 1 µM) it was 0.142; with OSI-027 + Luminespib (first compound 0.01 µM), 0.143; with OSI-027 + Luminespib (first compound 0.03162 µM), 0.166; with OSI-027 + Luminespib (first compound 0.1 µM) it was 0.176; in the assay with OSI-027 + Luminespib (first compound 0.3162 µM) it was 0.133. In addition, the relative viability stood at 0.158 in the assay with OSI-027 + Luminespib (first compound 1 µM); 1.32 with OSI-027 + AZD7762 (first compound 0.01 µM); 1.1 in the assay with OSI-027 + AZD7762 (first compound 0.03162 µM); 1.4 with OSI-027 + AZD7762 (first compound 0.1 µM); 1.1 with OSI-027 + AZD7762 (first compound 0.3162 µM); 0.929 with OSI-027 + AZD7762 (first compound 1 µM).

Take RERF-LC-KJ: the relative viability was 0.858 in the assay with Vemurafenib + Foretinib (first compound 0.03162 µM); 0.816 with Vemurafenib + Foretinib (first compound 0.1 µM); 0.875 with Vemurafenib + Foretinib (first compound 0.3162 µM); 0.876 with Vemurafenib + Foretinib (first compound 1 µM); 0.709 with OSI-027 + Trametinib (first compound 0.01 µM); 0.832 in the assay with OSI-027 + Trametinib (first compound 0.03162 µM). In addition, the relative viability worked out at 0.815 with OSI-027 + Trametinib (first compound 0.1 µM); 0.667 with OSI-027 + Trametinib (first compound 0.3162 µM); 0.406 with OSI-027 + Trametinib (first compound 1 µM); 1.41 with OSI-027 + Luminespib (first compound 0.01 µM); 1.09 with OSI-027 + Luminespib (first compound 0.03162 µM); 1.08 in the assay with OSI-027 + Luminespib (first compound 0.1 µM). In addition, the relative viability with OSI-027 + Luminespib (first compound 0.3162 µM) came out at 1.09; with OSI-027 + Luminespib (first compound 1 µM), 0.459; in the assay with OSI-027 + AZD7762 (first compound 0.01 µM), 1.05; in the assay with OSI-027 + AZD7762 (first compound 0.03162 µM), 0.742; in the assay with OSI-027 + AZD7762 (first compound 0.1 µM), 0.871; with OSI-027 + AZD7762 (first compound 0.3162 µM) it was 0.748. Also, in the assay with OSI-027 + AZD7762 (first compound 1 µM), the relative viability was 0.452.

The values are drawn from the supplement of paper PMC10307832.
